Reference: ChEMBL document CHEMBL1641449, “A novel transition state analog inhibitor of guanase based on azepinomycin ring structure: Synthesis and biochemical assessment of enzyme inhibition” (Bioorg Med Chem Lett, 2011)

Biological target: T1, Guanine deaminase (Homo sapiens, UniProt Q9Y2T3)
T1 sequence (Q9Y2T3 whole entry): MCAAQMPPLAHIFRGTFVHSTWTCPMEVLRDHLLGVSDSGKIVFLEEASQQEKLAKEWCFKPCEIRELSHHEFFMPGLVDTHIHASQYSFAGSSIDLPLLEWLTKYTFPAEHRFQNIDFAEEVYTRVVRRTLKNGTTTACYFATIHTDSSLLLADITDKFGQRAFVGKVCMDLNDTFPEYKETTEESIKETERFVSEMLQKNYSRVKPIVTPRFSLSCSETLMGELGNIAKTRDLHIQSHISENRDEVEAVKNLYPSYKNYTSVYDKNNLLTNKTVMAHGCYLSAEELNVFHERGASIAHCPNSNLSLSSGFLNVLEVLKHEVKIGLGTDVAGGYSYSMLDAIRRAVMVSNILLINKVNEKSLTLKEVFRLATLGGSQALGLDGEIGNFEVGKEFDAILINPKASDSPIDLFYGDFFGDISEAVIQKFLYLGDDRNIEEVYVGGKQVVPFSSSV
Assay: Competitive inhibition of guanase by Lineweaver-Burk plot analysis

Compound `O=C(NC1(CO)NC(=O)c2ncn(Cc3ccccc3)c2NC1=O)OCc1ccccc1` (stereo unspecified) has a Ki of 16.7 µM.
